{"source": "patent US20180008629A1", "about": "“Compositions and Methods for Treating NLRP3 Inflammasome-Related Diseases and Disorders” (priority 2015, published 2018)", "key": {"[1]": {"molecular_target": "NLRP3 inflammasome (Mus musculus, UniProt Q8R4B8)", "sequence (Q8R4B8 whole entry)": "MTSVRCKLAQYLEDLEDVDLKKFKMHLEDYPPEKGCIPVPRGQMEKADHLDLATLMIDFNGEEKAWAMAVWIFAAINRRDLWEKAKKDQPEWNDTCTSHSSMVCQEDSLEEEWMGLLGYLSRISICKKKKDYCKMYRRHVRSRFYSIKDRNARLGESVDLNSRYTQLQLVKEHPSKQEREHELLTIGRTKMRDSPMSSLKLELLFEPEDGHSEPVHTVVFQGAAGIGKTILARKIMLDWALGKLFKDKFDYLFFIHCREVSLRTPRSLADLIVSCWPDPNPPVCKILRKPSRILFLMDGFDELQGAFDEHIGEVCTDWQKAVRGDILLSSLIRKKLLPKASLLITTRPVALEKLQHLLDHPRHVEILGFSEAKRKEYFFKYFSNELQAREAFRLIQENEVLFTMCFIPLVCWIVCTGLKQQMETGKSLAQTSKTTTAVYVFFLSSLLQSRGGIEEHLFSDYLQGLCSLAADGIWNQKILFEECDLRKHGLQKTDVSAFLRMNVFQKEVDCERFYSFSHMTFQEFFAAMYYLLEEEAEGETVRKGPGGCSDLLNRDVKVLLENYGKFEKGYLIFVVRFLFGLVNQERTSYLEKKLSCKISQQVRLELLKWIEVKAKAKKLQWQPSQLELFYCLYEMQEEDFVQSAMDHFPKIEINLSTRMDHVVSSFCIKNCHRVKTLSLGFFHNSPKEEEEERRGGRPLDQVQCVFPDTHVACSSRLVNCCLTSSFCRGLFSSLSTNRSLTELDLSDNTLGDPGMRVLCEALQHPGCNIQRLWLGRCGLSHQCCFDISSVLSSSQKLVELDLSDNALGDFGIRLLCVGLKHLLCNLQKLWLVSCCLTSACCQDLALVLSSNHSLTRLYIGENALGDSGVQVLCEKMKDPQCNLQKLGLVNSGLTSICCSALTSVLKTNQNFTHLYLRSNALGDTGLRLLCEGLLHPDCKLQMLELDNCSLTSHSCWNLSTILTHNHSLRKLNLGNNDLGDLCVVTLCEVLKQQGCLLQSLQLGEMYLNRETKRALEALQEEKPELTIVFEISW", "experiment": "NLRP3 inflammasome activation in LPS primed BMDMs (caspase-1 / IL-1β immunoblot)", "format": "cell-based", "set-up": "endogenous in cells; host or cells: mouse bone marrow derived macrophages (A1)", "conditions": "for effect on BHB's suppressive effects on ATP-induced NLRP3 inflammasome activation: co-treatment with BHB; for ATP-induced NLRP3 activation: BMDMs stimulated with LPS and ATP, caspase-1 immunoblot (FIG. 1B); for induction of caspase-1 cleavage by ROS damage: rotenone (10 μM) or hydrogen peroxide", "method": "All steps were performed using sterile technique. Femurs were collected in RPMI (Life Technologies, Grand Island, N.Y.)+5% FBS (R5; Omega Scientific, Tarzana, Calif.). Both ends of the femur were then cut and the femur was flushed with R5. The bone marrow was centrifuge at 450 g for 5 min, the supernatant was decanted and red blood cells were lysed using ACK lysis buffer (Quality Biological, Gaithersburg, Md.). After neutralization with R5, bone marrow cells were centrifuged, resuspended in 10 ml of R5 and placed into a 6 well plate. Non-adherent cells were collected the following morning. The non-adherent cells were resuspended at 4×10^6 cells/ml in media consisting of 10 ml supernatant of non-adherent cells, 7.2 ml L929 conditioned media, 6.8 ml R5 and MCSF (long/ml; R&D Systems, Minneapolis, Minn.). An additional 2 ml of fresh media was added 4 d after isolation. Non-adherent cells were collected on day 7, separated by density gradient separation using Fico/Lite (Atlanta Biologicals, Flowery Branch, Ga.) and mononuclear cells were collected. Cells were rinsed twice with Dulbecco's PBS+2% FBS, and resuspended at 1×10^6 cells/ml. Cells were treated with ultrapure LPS (Invivogen, San Diego, Calif.) alone or in combination with 5 mM ATP (Sigma, St. Louis, Mo.) or 200 μM palmitate-BSA (Sigma). The BMDMs were also primed with ultrapure lipid A (10 μg/ml; Invivogen, San Diego, Calif.), lipoteichoic acid (10 μg/ml; Invivogen), or Pam3-CSK4 (10 μg/ml; Invivogen) for 4 hour and stimulated with various NLRP3 activators (ATP 5 mM; Sigma, MSU 250 ug/ml; Invivogen, Silica; 200 ug/ml; Invivogen, sodium palmitate; 200 μM; Sigma, ceramide C6 80 μg/ml; Cayman, and sphingosine 40 μM; Cayman, Ann Arbor, Mich.) for 1 hour together with D-BHB or L-(BHB) at indicated concentration. The cell supernatants and cell lysates were collected 1 h after BHB treatment and analyzed for caspase-1 and IL-1β.\nThe BMDM cell lysates were prepared using RIPA buffer and immediately snap frozen in liquid nitrogen. Samples were left on ice for 1 hour with vortexing every 10 min. Samples were then centrifuge at 14,000 g for 15 min, the supernatant was collected and the protein concentration was determined using the DC Protein Assay (Bio-RAD). […] The immune complexes were visualized by incubation with horseradish peroxidase-conjugated anti-rat or anti-rabbit secondary antibody (Amersham Biosciences). Immunoreactive bands were visualized by enhanced chemiluminescence (PerkinElmer Life Sciences)."}, "[2]": {"system": "Gpr109a", "conditions": "Taggart et al., 2005; cited from earlier work"}, "[3]": {"conditions": "WT and Gpr109a−/− BMDMs stimulated with LPS and ATP"}}, "data": [{"smiles": "O=CC[C@@H](O)[C@H](O)[C@H](O)CO", "note": "[2DG, 2-deoxyglucose, reference compound]", "values": [{"measurement": "mimicking of BHB's anti-inflammasome effect by inhibition of glycolysis", "setting": "[1]; LPS primed BMDMs, ATP, 2-deoxyglucose (1 mM)", "value": "did not mimic"}]}, {"smiles": "Cn1cnc(N)c2ncnc1-2", "note": "[3-methyladenine, reference compound]", "values": [{"measurement": "effect on BHB's suppressive effects on ATP-induced NLRP3 inflammasome activation", "setting": "[1]; LPS primed BMDMs, ATP", "value": "did not abrogate"}]}, {"smiles": "C[C@H](O)CC(=O)O", "note": "[(S)-BHB, (S)-3-hydroxybutyric acid]", "values": [{"measurement": "binding to Gpr109a", "setting": "[2]", "value": "high affinity"}, {"measurement": "NLRP3 inflammasome activation (Nlrp3 induced caspase-1 activation)", "setting": "[1]; BMDMs (FIG. 6E)", "value": "efficiently blocked"}, {"measurement": "anti-inflammasome activity", "setting": "[1]; [3]", "value": "retains anti-inflammasome activity similar to bioactive D-(BHB)"}, {"measurement": "requirement of Gpr109a to block NLRP3", "setting": "[1]; [3]", "value": "does not require"}]}, {"smiles": "N#C/C(=C\\c1ccc(-c2cc(Cl)ccc2Cl)o1)C(=O)Nc1cccc2ncccc12", "note": "[AGK2, reference compound]", "values": [{"measurement": "effect on BHB's suppressive effects on ATP-induced NLRP3 inflammasome activation", "setting": "[1]; LPS primed BMDMs, ATP", "value": "did not abrogate"}]}, {"smiles": "NC(=O)c1ccc[n+]([C@@H]2O[C@H](COP(=O)([O-])OP(=O)(O)OC[C@H]3O[C@@H](n4cnc5c(N)ncnc54)[C@H](O)[C@@H]3O)[C@@H](O)[C@H]2O)c1", "note": "[NAD^+, reference compound]", "values": [{"measurement": "caspase-1 activation in response to LPS and ATP", "setting": "[1]; BMDMs, NAD+ (10 μM)", "value": "did not block"}]}, {"smiles": "CC(=O)O", "note": "[acetate, reference compound]", "values": [{"measurement": "ATP-induced NLRP3 activation", "setting": "[1]; 10 mM", "value": "did not affect"}]}, {"smiles": "CC(=O)CC(=O)O", "note": "[acetoacetate, reference compound]", "values": [{"measurement": "ATP-induced NLRP3 activation", "setting": "[1]; 10 mM", "value": "did not affect"}, {"measurement": "effect on the NLRP3 inflammasome", "setting": "[1]; control and Gpr109a deficient BMDMs, LPS and ATP, 10 mM", "value": "neither butyrate nor acetoacetate affect"}]}, {"smiles": "NOCC(=O)O", "note": "[aminoxyacetate, reference compound]", "values": [{"measurement": "effect on BHB's suppressive effects on ATP-induced NLRP3 inflammasome activation", "setting": "[1]; LPS primed BMDMs, ATP", "value": "did not affect"}]}, {"smiles": "CC[C@H](C)[C@H](NC(=O)[C@H]([C@@H](C)CC)N(C)C(C)=O)C(=O)N[C@H](C(=O)N[C@@H](CC(C)C)C(=O)[C@@]1(C)CO1)[C@@H](C)O", "note": "[epoxomicin, reference compound]", "values": [{"measurement": "effect on BHB's suppressive effects on ATP-induced NLRP3 inflammasome activation", "setting": "[1]; LPS primed BMDMs, ATP", "value": "did not abrogate"}]}, {"smiles": "OO", "note": "[hydrogen peroxide, reference compound]", "values": [{"measurement": "effect on BHB's suppressive effects on ATP-induced NLRP3 inflammasome activation", "setting": "[1]; LPS primed BMDMs, ATP", "value": "did not prevent"}, {"measurement": "induction of caspase-1 cleavage by ROS damage", "setting": "[1]; LPS primed BMDMs", "value": "not sufficient to induce"}]}, {"smiles": "O=C(O)c1cccnc1", "note": "[niacin, reference compound]", "values": [{"measurement": "NLRP3 inflammasome activation with GPR109a ligand", "setting": "[1]; BMDMs activated with LPS and ATP, niacin (1 mM)", "value": "did not block"}]}, {"smiles": "C=C(C)[C@H]1Cc2c(ccc3c2O[C@@H]2COc4cc(OC)c(OC)cc4[C@@H]2C3=O)O1", "note": "[rotenone, reference compound]", "values": [{"measurement": "effect on BHB's suppressive effects on ATP-induced NLRP3 inflammasome activation", "setting": "[1]; LPS primed BMDMs, ATP", "value": "did not prevent"}, {"measurement": "induction of caspase-1 cleavage by ROS damage", "setting": "[1]; LPS primed BMDMs", "value": "not sufficient to induce"}]}, {"smiles": "CC(/C=C/C(=O)NO)=C\\[C@@H](C)C(=O)c1ccc(N(C)C)cc1", "note": "[trichostatin A, reference compound]", "values": [{"measurement": "inflammasome activation with HDAC inhibitor", "setting": "[1]; LPS primed and NLRP3 agonist treated macrophages, TSA (50 nM)", "value": "no effects"}]}]}
